Data reported in patent US20210346527A1, “Combination Therapy” (Advanced Accelerator Applications (Italy) SRL, priority 2018, published 2021).

Tested on: CA20948 Tumor Model (neuroendocrine tumor cells)
Experiment: In vivo therapy of PRRT +/- Olaparib, CA20948 tumor model
Parameters: species or system BALB-c immunocompromised mice
Text: FIG. 1 : In vivo therapy of PRRT +/− Olaparib. The FIG. 1A presents the tumor volume after injection in the presence of the vehicle (square), olaparib alone (full circle), PRRT alone (empty circle) or in combination with PARP inhibitor (triangle). The survival proportions are also shown in FIG. 1B after injection in the presence of the vehicle, olaparib alone, PRRT alone or in combination with PARP inhibitor.
Combination therapies using CA20948 Tumor Model
We have xenografted BALB-c immunocompromised mice with neuroendocrine tumor cells. To increase the window of opportunity, we have started PARP inhibitor administration two days prior to PRRT injection for in total 14 days.

| Compound | speed of tumor regrowth (PRRT versus PRRT+olaparib groups) | start of tumor shrinkage (after injection, xenografted mice, PARP inhibitor started two days prior to PRRT injection, in total 14 days) | effect on survival (compared to vehicle) | effect on tumor growth (compared to vehicle) |
| --- | --- | --- | --- | --- |
| Lutetium (177Lu) oxodotreotide [PRRT] | the same in both groups | 3 days |  |  |
| O=C(c1cc(Cc2n[nH]c(=O)c3ccccc23)ccc1F)N1CCN(C(=O)C2CC2)CC1 [olaparib, Olaparib] |  |  | No effect | No effect |
